Common to all, as to assay: Indoor herbicide activity determination, Seed Treatment; pre-emergence (soil spray)
Assay type in all cases: in vivo

One experiment concerns Digitaria sanguinalis. The following applies: read-out: Herbicidal activities (inhibition rate) Digitaria sanguinalis; for inhibition at 120 g/ha: 120 g a.i./ha. The procedure, abridged:
(§1)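 Pre-emergence soil spray; sandy soil pH 6.1, OM 1%, 7 cm pots; seeds covered, wetted from below, 24 h incubation under light at constant temperature; spray tower, 300 mm height, 390 mL/min nozzle flow; readout = % fresh-weight inhibition vs control at 21 d.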

The subject of another experiment is Cyperus iria. The following applies: read-out: Herbicidal activities (inhibition rate) Cyperus iria; for inhibition at 120 g/ha: 120 g a.i./ha. The procedure, abridged:
as §1

Another experiment has as its system Leptochloa chinensis. The procedure, abridged:
as §1

The subject of a further experiment is Aegilops tauschii. The following applies: read-out: Herbicidal activities (inhibition rate) Aegilops tauschii; for inhibition at 120 g/ha: 120 g a.i./ha. The gist of the method: as §1
For the next experiment, the system named is Alopecurus japonicus. The procedure, abridged: as §1
In another experiment the test system is Alopecurus myosuroides. The procedure, abridged: as §1
The next experiment has as its system Lolium multiflorum. The gist of the method:
as §1

Another experiment has as its system Eleusine indica. The gist of the method: as §1
Another experiment deals with Eclipta prostrata. The following applies: 120 g a.i./ha, read-out: Herbicidal activities (inhibition rate) Eclipta prostrata. The procedure, abridged:
as §1

For `COC(=O)[C@H]1C[C@@H](NC(=O)C2(C)CC(c3cc(F)cc(OC(F)(F)F)c3)=NO2)CO1` (mixture of isomers) [I-380], the inhibition at 120 g/ha in the experiment with Digitaria sanguinalis, in the experiment with Cyperus iria and in the experiment with Aegilops tauschii was 80 to 100% in each case. Also, the “Herbicidal activities, Leptochloa chinensis (inhibition rate class)” value with Leptochloa chinensis (Dosage 240 g a.i./ha) was “A (A indicates that the inhibition rate was greater than or equal to 80% to 100%)”. For the same molecule, the “Herbicidal activities, Alopecurus japonicus (inhibition rate class)” value with Alopecurus japonicus (Dosage 240 g a.i./ha) is recorded as “A (A indicates that the inhibition rate was greater than or equal to 80% to 100%)”. Besides, the “Herbicidal activities, Alopecurus myosuroides (inhibition rate class)” value in the experiment on Alopecurus myosuroides (Dosage 240 g a.i./ha) is “A (A indicates that the inhibition rate was greater than or equal to 80% to 100%)”. Also, the “Herbicidal activities, Lolium multiflorum (inhibition rate class)” value in the experiment with Lolium multiflorum (Dosage 240 g a.i./ha) is listed as “A (A indicates that the inhibition rate was greater than or equal to 80% to 100%)”.

For the molecule `C=C[C@]1(C(=O)N[C@H]2C[C@@H](C(=O)O[C@H](C)COC)C2)CC(c2cc(F)cc(F)c2)=NO1` [I-19], the values for the inhibition at 60 g/ha in the experiment with Digitaria sanguinalis (60 g a.i./ha), with Cyperus iria (60 g a.i./ha) and in the experiment with Aegilops tauschii (60 g a.i./ha) were 80 to 100%, 60 to 80% and 80 to 100%, respectively. Moreover, the “Herbicidal activities, Eleusine indica (inhibition rate class)” value in the experiment with Eleusine indica (Dosage 120 g a.i./ha) is recorded as “A (A indicates that the inhibition rate was greater than or equal to 80% to 100%)”. Moreover, the “Herbicidal activities, Leptochloa chinensis (inhibition rate class)” value in the experiment on Leptochloa chinensis (Dosage 120 g a.i./ha) is “A (A indicates that the inhibition rate was greater than or equal to 80% to 100%)”. In the experiment on Alopecurus japonicus (Dosage 120 g a.i./ha), the “Herbicidal activities, Alopecurus japonicus (inhibition rate class)” value was “A (A indicates that the inhibition rate was greater than or equal to 80% to 100%)”. In addition, the “Herbicidal activities, Alopecurus myosuroides (inhibition rate class)” value in the experiment with Alopecurus myosuroides (Dosage 120 g a.i./ha) is on record as “A (A indicates that the inhibition rate was greater than or equal to 80% to 100%)”. Further, the “Herbicidal activities, Lolium multiflorum (inhibition rate class)” value in the experiment on Lolium multiflorum (Dosage 120 g a.i./ha) is reported as “A (A indicates that the inhibition rate was greater than or equal to 80% to 100%)”.

`CSCCOC(=O)C1CC(NC(=O)C2(C)CC(c3cc(F)cc(OC(F)(F)F)c3)=NO2)CO1` (stereo not shown) [I-382]: the inhibition at 120 g/ha in the experiment with Digitaria sanguinalis, in the experiment with Cyperus iria and in the experiment with Aegilops tauschii was 80 to 100% in each case. Further, the “Herbicidal activities, Leptochloa chinensis (inhibition rate class)” value in the experiment with Leptochloa chinensis (Dosage 240 g a.i./ha) is reported as “A (A indicates that the inhibition rate was greater than or equal to 80% to 100%)”. The “Herbicidal activities, Alopecurus japonicus (inhibition rate class)” value in the experiment on Alopecurus japonicus (Dosage 240 g a.i./ha) was “A (A indicates that the inhibition rate was greater than or equal to 80% to 100%)”. Also, in the experiment on Alopecurus myosuroides (Dosage 240 g a.i./ha), the “Herbicidal activities, Alopecurus myosuroides (inhibition rate class)” value is listed as “A (A indicates that the inhibition rate was greater than or equal to 80% to 100%)”. Moreover, the “Herbicidal activities, Lolium multiflorum (inhibition rate class)” value with Lolium multiflorum (Dosage 240 g a.i./ha) is “A (A indicates that the inhibition rate was greater than or equal to 80% to 100%)”.

As to `C[S+]([O-])CCOC(=O)C1CC(NC(=O)C2(C)CC(c3cc(F)cc(OC(F)(F)F)c3)=NO2)CO1` (stereo not shown) [I-383], the inhibition at 120 g/ha in the experiment on Digitaria sanguinalis was in the range of 80 to 100%; with Cyperus iria it was 60 to 80%; in the experiment on Aegilops tauschii, 80 to 100%. Besides, the “Herbicidal activities, Leptochloa chinensis (inhibition rate class)” value in the experiment on Leptochloa chinensis (Dosage 240 g a.i./ha) is “A (A indicates that the inhibition rate was greater than or equal to 80% to 100%)”. Also, the “Herbicidal activities, Alopecurus japonicus (inhibition rate class)” value in the experiment on Alopecurus japonicus (Dosage 240 g a.i./ha) was “A (A indicates that the inhibition rate was greater than or equal to 80% to 100%)”. Further, the “Herbicidal activities, Alopecurus myosuroides (inhibition rate class)” value with Alopecurus myosuroides (Dosage 240 g a.i./ha) is “A (A indicates that the inhibition rate was greater than or equal to 80% to 100%)”. Further, in the experiment with Lolium multiflorum (Dosage 240 g a.i./ha), the “Herbicidal activities, Lolium multiflorum (inhibition rate class)” value was “A (A indicates that the inhibition rate was greater than or equal to 80% to 100%)”.

As for `CC1(C(=O)NC2COC(C(=O)OCCS(C)(=O)=O)C2)CC(c2cc(F)cc(OC(F)(F)F)c2)=NO1` (stereo not shown) [I-384], the inhibition at 120 g/ha in the experiment on Digitaria sanguinalis fell in the range of 80 to 100%; with Cyperus iria it was 60 to 80%; in the experiment on Aegilops tauschii, 80 to 100%. Also, in the experiment with Leptochloa chinensis (Dosage 240 g a.i./ha), the “Herbicidal activities, Leptochloa chinensis (inhibition rate class)” value is “A (A indicates that the inhibition rate was greater than or equal to 80% to 100%)”. Further, in the experiment on Alopecurus japonicus (Dosage 240 g a.i./ha), the “Herbicidal activities, Alopecurus japonicus (inhibition rate class)” value was “A (A indicates that the inhibition rate was greater than or equal to 80% to 100%)”. The “Herbicidal activities, Alopecurus myosuroides (inhibition rate class)” value with Alopecurus myosuroides (Dosage 240 g a.i./ha) is “A (A indicates that the inhibition rate was greater than or equal to 80% to 100%)”. In the experiment with Lolium multiflorum (Dosage 240 g a.i./ha), the “Herbicidal activities, Lolium multiflorum (inhibition rate class)” value is recorded as “A (A indicates that the inhibition rate was greater than or equal to 80% to 100%)”.

For `COC(=O)C1CC(NC(=O)C2(C(F)(F)F)CC(c3cc(F)cc(OC(F)F)c3)=NO2)CO1` (stereo not shown) [I-394], the inhibition at 120 g/ha in the experiment with Digitaria sanguinalis was 60 to 80%; in the experiment with Aegilops tauschii, 80 to 100%; with Eclipta prostrata, 60 to 80%. Further, the “Herbicidal activities, Leptochloa chinensis (inhibition rate class)” value in the experiment on Leptochloa chinensis (Dosage 240 g a.i./ha) was “A (A indicates that the inhibition rate was greater than or equal to 80% to 100%)”. Moreover, in the experiment on Alopecurus japonicus (Dosage 240 g a.i./ha), the “Herbicidal activities, Alopecurus japonicus (inhibition rate class)” value was “A (A indicates that the inhibition rate was greater than or equal to 80% to 100%)”. Moreover, the “Herbicidal activities, Alopecurus myosuroides (inhibition rate class)” value with Alopecurus myosuroides (Dosage 240 g a.i./ha) is reported as “A (A indicates that the inhibition rate was greater than or equal to 80% to 100%)”. Moreover, the “Herbicidal activities, Lolium multiflorum (inhibition rate class)” value with Lolium multiflorum (Dosage 240 g a.i./ha) is on record as “A (A indicates that the inhibition rate was greater than or equal to 80% to 100%)”.

Regarding `O=C(O)C1CC(NC(=O)C2(C(F)(F)F)CC(c3cc(Cl)cc(OC(F)F)c3)=NO2)CO1` (stereo not shown) [I-395], the inhibition at 120 g/ha in the experiment with Digitaria sanguinalis, in the experiment with Cyperus iria, in the experiment on Aegilops tauschii and in the experiment on Eclipta prostrata was 60 to 80% each time. In addition, the “Herbicidal activities, Leptochloa chinensis (inhibition rate class)” value in the experiment with Leptochloa chinensis (Dosage 240 g a.i./ha) is on record as “A (A indicates that the inhibition rate was greater than or equal to 80% to 100%)”. Moreover, the “Herbicidal activities, Alopecurus myosuroides (inhibition rate class)” value with Alopecurus myosuroides (Dosage 240 g a.i./ha) was “A (A indicates that the inhibition rate was greater than or equal to 80% to 100%)”. Also, the “Herbicidal activities, Lolium multiflorum (inhibition rate class)” value with Lolium multiflorum (Dosage 240 g a.i./ha) is on record as “A (A indicates that the inhibition rate was greater than or equal to 80% to 100%)”.

For the molecule `COC(=O)C1CC(NC(=O)C2(C(F)(F)F)CC(c3cc(Cl)cc(OC(F)(F)F)c3)=NO2)CO1` (stereo not shown) [I-400], the inhibition at 120 g/ha in the experiment on Digitaria sanguinalis is 80 to 100%; in the experiment with Cyperus iria, 60 to 80%; in the experiment with Aegilops tauschii it was 80 to 100%; in the experiment with Eclipta prostrata, 80 to 100%. In the experiment with Leptochloa chinensis (Dosage 240 g a.i./ha), the “Herbicidal activities, Leptochloa chinensis (inhibition rate class)” value was “A (A indicates that the inhibition rate was greater than or equal to 80% to 100%)”. Further, the “Herbicidal activities, Alopecurus myosuroides (inhibition rate class)” value with Alopecurus myosuroides (Dosage 240 g a.i./ha) is “A (A indicates that the inhibition rate was greater than or equal to 80% to 100%)”.

For `COC(=O)[C@@H]1C=C[C@H](NC(=O)C2(C)CC(c3cc(F)cc(OC(F)(F)F)c3)=NO2)C1` (stereo partly shown) [I-489], the inhibition at 120 g/ha was 60 to 80% with Digitaria sanguinalis, 80 to 100% in the experiment with Cyperus iria and 80 to 100% in the experiment on Aegilops tauschii. Besides, the “Herbicidal activity (inhibition rate class), Eleusine indica” value with Eleusine indica (Dosage 240 g a.i./ha) is listed as “A (A indicates that the inhibition rate was greater than or equal to 80% to 100%)”. For the same molecule, the “Herbicidal activity (inhibition rate class), Leptochloa chinensis” value in the experiment with Leptochloa chinensis (Dosage 240 g a.i./ha) is reported as “A (A indicates that the inhibition rate was greater than or equal to 80% to 100%)”. Besides, the “Herbicidal activity (inhibition rate class), Alopecurus japonicus” value with Alopecurus japonicus (Dosage 240 g a.i./ha) is “A (A indicates that the inhibition rate was greater than or equal to 80% to 100%)”. In addition, in the experiment on Alopecurus myosuroides (Dosage 240 g a.i./ha), the “Herbicidal activity (inhibition rate class), Alopecurus myosuroides” value is given as “A (A indicates that the inhibition rate was greater than or equal to 80% to 100%)”. Moreover, the “Herbicidal activity (inhibition rate class), Lolium multiflorum” value in the experiment on Lolium multiflorum (Dosage 240 g a.i./ha) is recorded as “A (A indicates that the inhibition rate was greater than or equal to 80% to 100%)”.

The record behind these values is patent EP4722201A1, “3-PHENYLISOXAZOLINE-5-CARBOXAMIDE COMPOUND, AND PREPARATION METHOD THEREFOR, HERBICIDAL COMPOSITION THEREOF AND USE THEREOF” (Jiangsu Flag Chemical Industry Co., Ltd, priority 2023, dated 2024).
